Measured values: BigSolDB 2.1

SMILES: Cc1cnc(N)s1
- solubility (mole fraction) (in 1,4-dioxane, 278.15 K): 0.0399
- solubility (mole fraction) (in 1,4-dioxane, 280.65 K): 0.0431
- solubility (mole fraction) (in 1,4-dioxane, 283.15 K): 0.0474
- solubility (mole fraction) (in 1,4-dioxane, 285.65 K): 0.0517
- solubility (mole fraction) (in 1,4-dioxane, 288.15 K): 0.0563
- solubility (mole fraction) (in 1,4-dioxane, 290.65 K): 0.0618
- solubility (mole fraction) (in 1,4-dioxane, 293.15 K): 0.0673
- solubility (mole fraction) (in 1,4-dioxane, 295.65 K): 0.0737
- solubility (mole fraction) (in 1,4-dioxane, 298.15 K): 0.0806
- solubility (mole fraction) (in 1,4-dioxane, 300.65 K): 0.0881
- solubility (mole fraction) (in 1,4-dioxane, 303.15 K): 0.0961
- solubility (mole fraction) (in 1,4-dioxane, 305.65 K): 0.105
- solubility (mole fraction) (in 1,4-dioxane, 308.15 K): 0.115
- solubility (mole fraction) (in 1,4-dioxane, 310.65 K): 0.126
- solubility (mole fraction) (in 1,4-dioxane, 313.15 K): 0.138
- solubility (mole fraction) (in 2-butanone, 278.15 K): 0.0365
- solubility (mole fraction) (in 2-butanone, 280.65 K): 0.0405
- solubility (mole fraction) (in 2-butanone, 283.15 K): 0.0448
- solubility (mole fraction) (in 2-butanone, 285.65 K): 0.049
- solubility (mole fraction) (in 2-butanone, 288.15 K): 0.0535
- solubility (mole fraction) (in 2-butanone, 290.65 K): 0.0585
- solubility (mole fraction) (in 2-butanone, 293.15 K): 0.064
- solubility (mole fraction) (in 2-butanone, 295.65 K): 0.0705
- solubility (mole fraction) (in 2-butanone, 298.15 K): 0.0776
- solubility (mole fraction) (in 2-butanone, 300.65 K): 0.0849
- solubility (mole fraction) (in 2-butanone, 303.15 K): 0.093
- solubility (mole fraction) (in 2-butanone, 305.65 K): 0.101
- solubility (mole fraction) (in 2-butanone, 308.15 K): 0.111
- solubility (mole fraction) (in 2-butanone, 310.65 K): 0.121
- solubility (mole fraction) (in 2-butanone, 313.15 K): 0.133
- solubility (mole fraction) (in acetone, 278.15 K): 0.0493
- solubility (mole fraction) (in acetone, 280.65 K): 0.0535
- solubility (mole fraction) (in acetone, 283.15 K): 0.0587
- solubility (mole fraction) (in acetone, 285.65 K): 0.0637
- solubility (mole fraction) (in acetone, 288.15 K): 0.0692
- solubility (mole fraction) (in acetone, 290.65 K): 0.0756
- solubility (mole fraction) (in acetone, 293.15 K): 0.0825
- solubility (mole fraction) (in acetone, 295.65 K): 0.09
- solubility (mole fraction) (in acetone, 298.15 K): 0.0979
- solubility (mole fraction) (in acetone, 300.65 K): 0.107
- solubility (mole fraction) (in acetone, 303.15 K): 0.116
- solubility (mole fraction) (in acetone, 305.65 K): 0.126
- solubility (mole fraction) (in acetone, 308.15 K): 0.137
- solubility (mole fraction) (in acetone, 310.65 K): 0.15
- solubility (mole fraction) (in acetone, 313.15 K): 0.163
- solubility (mole fraction) (in acetonitrile, 278.15 K): 0.0284
- solubility (mole fraction) (in acetonitrile, 280.65 K): 0.031
- solubility (mole fraction) (in acetonitrile, 283.15 K): 0.0341
- solubility (mole fraction) (in acetonitrile, 285.65 K): 0.0372
- solubility (mole fraction) (in acetonitrile, 288.15 K): 0.0406
- solubility (mole fraction) (in acetonitrile, 290.65 K): 0.0446
- solubility (mole fraction) (in acetonitrile, 293.15 K): 0.0489
- solubility (mole fraction) (in acetonitrile, 295.65 K): 0.0536
- solubility (mole fraction) (in acetonitrile, 298.15 K): 0.0586
- solubility (mole fraction) (in acetonitrile, 300.65 K): 0.0638
- solubility (mole fraction) (in acetonitrile, 303.15 K): 0.0699
- solubility (mole fraction) (in acetonitrile, 305.65 K): 0.0763
- solubility (mole fraction) (in acetonitrile, 308.15 K): 0.0838
- solubility (mole fraction) (in acetonitrile, 310.65 K): 0.0921
- solubility (mole fraction) (in acetonitrile, 313.15 K): 0.1
- solubility (mole fraction) (in cyclohexane, 283.15 K): 0.000429
- solubility (mole fraction) (in cyclohexane, 285.65 K): 0.000491
- solubility (mole fraction) (in cyclohexane, 288.15 K): 0.000566
- solubility (mole fraction) (in cyclohexane, 290.65 K): 0.000645
- solubility (mole fraction) (in cyclohexane, 293.15 K): 0.000736
- solubility (mole fraction) (in cyclohexane, 295.65 K): 0.000839
- solubility (mole fraction) (in cyclohexane, 298.15 K): 0.000953
- solubility (mole fraction) (in cyclohexane, 300.65 K): 0.00108
- solubility (mole fraction) (in cyclohexane, 303.15 K): 0.00123
- solubility (mole fraction) (in cyclohexane, 305.65 K): 0.00138
- solubility (mole fraction) (in cyclohexane, 308.15 K): 0.00156
- solubility (mole fraction) (in cyclohexane, 310.65 K): 0.00173
- solubility (mole fraction) (in cyclohexane, 313.15 K): 0.00194
- solubility (mole fraction) (in ethanol, 278.15 K): 0.0486
- solubility (mole fraction) (in ethanol, 280.65 K): 0.0529
- solubility (mole fraction) (in ethanol, 283.15 K): 0.0574
- solubility (mole fraction) (in ethanol, 285.65 K): 0.0629
- solubility (mole fraction) (in ethanol, 288.15 K): 0.0677
- solubility (mole fraction) (in ethanol, 290.65 K): 0.0736
- solubility (mole fraction) (in ethanol, 293.15 K): 0.0799
- solubility (mole fraction) (in ethanol, 295.65 K): 0.0869
- solubility (mole fraction) (in ethanol, 298.15 K): 0.095
- solubility (mole fraction) (in ethanol, 300.65 K): 0.103
- solubility (mole fraction) (in ethanol, 303.15 K): 0.112
- solubility (mole fraction) (in ethanol, 305.65 K): 0.122
- solubility (mole fraction) (in ethanol, 308.15 K): 0.133
- solubility (mole fraction) (in ethanol, 310.65 K): 0.144
- solubility (mole fraction) (in ethanol, 313.15 K): 0.157
- solubility (mole fraction) (in ethyl acetate, 278.15 K): 0.0523
- solubility (mole fraction) (in ethyl acetate, 280.65 K): 0.0567
- solubility (mole fraction) (in ethyl acetate, 283.15 K): 0.0614
- solubility (mole fraction) (in ethyl acetate, 285.65 K): 0.067
- solubility (mole fraction) (in ethyl acetate, 288.15 K): 0.0726
- solubility (mole fraction) (in ethyl acetate, 290.65 K): 0.0791
- solubility (mole fraction) (in ethyl acetate, 293.15 K): 0.086
- solubility (mole fraction) (in ethyl acetate, 295.65 K): 0.0934
- solubility (mole fraction) (in ethyl acetate, 298.15 K): 0.101
- solubility (mole fraction) (in ethyl acetate, 300.65 K): 0.109
- solubility (mole fraction) (in ethyl acetate, 303.15 K): 0.118
- solubility (mole fraction) (in ethyl acetate, 305.65 K): 0.129
- solubility (mole fraction) (in ethyl acetate, 308.15 K): 0.14
- solubility (mole fraction) (in ethyl acetate, 310.65 K): 0.152
- solubility (mole fraction) (in ethyl acetate, 313.15 K): 0.164
- solubility (mole fraction) (in isopropanol, 278.15 K): 0.0345
- solubility (mole fraction) (in isopropanol, 280.65 K): 0.0381
- solubility (mole fraction) (in isopropanol, 283.15 K): 0.0415
- solubility (mole fraction) (in isopropanol, 285.65 K): 0.0452
- solubility (mole fraction) (in isopropanol, 288.15 K): 0.0497
- solubility (mole fraction) (in isopropanol, 290.65 K): 0.0546
- solubility (mole fraction) (in isopropanol, 293.15 K): 0.0594
- solubility (mole fraction) (in isopropanol, 295.65 K): 0.0647
- solubility (mole fraction) (in isopropanol, 298.15 K): 0.0709
- solubility (mole fraction) (in isopropanol, 300.65 K): 0.0775
- solubility (mole fraction) (in isopropanol, 303.15 K): 0.085
- solubility (mole fraction) (in isopropanol, 305.65 K): 0.0927
- solubility (mole fraction) (in isopropanol, 308.15 K): 0.102
- solubility (mole fraction) (in isopropanol, 310.65 K): 0.112
- solubility (mole fraction) (in isopropanol, 313.15 K): 0.121
- solubility (mole fraction) (in methanol, 278.15 K): 0.0594
- solubility (mole fraction) (in methanol, 280.65 K): 0.0639
- solubility (mole fraction) (in methanol, 283.15 K): 0.0686
- solubility (mole fraction) (in methanol, 285.65 K): 0.0742
- solubility (mole fraction) (in methanol, 288.15 K): 0.0796
- solubility (mole fraction) (in methanol, 290.65 K): 0.086
- solubility (mole fraction) (in methanol, 293.15 K): 0.0927
- solubility (mole fraction) (in methanol, 295.65 K): 0.0999
- solubility (mole fraction) (in methanol, 298.15 K): 0.107
- solubility (mole fraction) (in methanol, 300.65 K): 0.116
- solubility (mole fraction) (in methanol, 303.15 K): 0.125
- solubility (mole fraction) (in methanol, 305.65 K): 0.135
- solubility (mole fraction) (in methanol, 308.15 K): 0.146
- solubility (mole fraction) (in methanol, 310.65 K): 0.157
- solubility (mole fraction) (in methanol, 313.15 K): 0.169
- solubility (mole fraction) (in n-propanol, 278.15 K): 0.037
- solubility (mole fraction) (in n-propanol, 280.65 K): 0.0404
- solubility (mole fraction) (in n-propanol, 283.15 K): 0.0441
- solubility (mole fraction) (in n-propanol, 285.65 K): 0.0482
- solubility (mole fraction) (in n-propanol, 288.15 K): 0.0526
- solubility (mole fraction) (in n-propanol, 290.65 K): 0.0575
- solubility (mole fraction) (in n-propanol, 293.15 K): 0.0628
- solubility (mole fraction) (in n-propanol, 295.65 K): 0.0686
- solubility (mole fraction) (in n-propanol, 298.15 K): 0.075
- solubility (mole fraction) (in n-propanol, 300.65 K): 0.082
- solubility (mole fraction) (in n-propanol, 303.15 K): 0.0898
- solubility (mole fraction) (in n-propanol, 305.65 K): 0.098
- solubility (mole fraction) (in n-propanol, 308.15 K): 0.107
- solubility (mole fraction) (in n-propanol, 310.65 K): 0.117
- solubility (mole fraction) (in n-propanol, 313.15 K): 0.128
- solubility (mole fraction) (in toluene, 278.15 K): 0.0109
- solubility (mole fraction) (in toluene, 280.65 K): 0.0121
- solubility (mole fraction) (in toluene, 283.15 K): 0.0136
- solubility (mole fraction) (in toluene, 285.65 K): 0.0149
- solubility (mole fraction) (in toluene, 288.15 K): 0.0167
- solubility (mole fraction) (in toluene, 290.65 K): 0.0185
- solubility (mole fraction) (in toluene, 293.15 K): 0.0205
- solubility (mole fraction) (in toluene, 295.65 K): 0.0225
- solubility (mole fraction) (in toluene, 298.15 K): 0.0251
- solubility (mole fraction) (in toluene, 300.65 K): 0.028
- solubility (mole fraction) (in toluene, 303.15 K): 0.0312
- solubility (mole fraction) (in toluene, 305.65 K): 0.0348
- solubility (mole fraction) (in toluene, 308.15 K): 0.039
- solubility (mole fraction) (in toluene, 310.65 K): 0.0438
- solubility (mole fraction) (in toluene, 313.15 K): 0.0493
